# Where a name gives a salt, the structure may show the parent alone.
# What was measured:
# p38 alpha = target: T1, p38 alpha (Homo sapiens, UniProt Q16539); assay: P38 alpha enzyme inhibition assay (Alphascreen kinase activity assay); type: biochemical; conditions: 100 pM p38 alpha, 2 hours preincubation at 25° C., 250 μM ATP, ATF-2 fusion protein; read-out: p38α inhibition
# T1 construct: purchased Invitrogen PV3304
# How it was run: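 Phosphorylation of ATF-2 fusion protein (0.3 μg/ml) read by AlphaScreen with anti-phospho-ATF2 antibody after 1 h kinase reaction at 25 °C, initiated by 250 μM ATP. Compounds first incubated 2 h at 25 °C with 100 pM p38 alpha in pH 7.5 HEPES buffer, 1% DMSO. IC50 derived from concentration-response data.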
# [1] = test system: Peripheral Blood Mononuclear Cells (PBMCs), TNFα release; assay: LPS-stimulated PBMC TNFα release assay; type: cell-based; conditions: human PBMC, LPS (10 ng/ml), 18 h, compound 1 h before LPS; read-out: LPS-stimulated PBMC TNFα release inhibition
# How it was run: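 TNFα in cell-free supernatant, read on MSD plates, gave % inhibition curves and IC50 (≥3 separate experiments). Healthy-donor PBMCs had 1 h compound exposure at 37 °C in 1% FBS medium, then 18 h stimulation with 10 ng/ml LPS, after a 3 h serum-free rest.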
# T1 sequence (Q16539 whole entry, the tested form may be a part): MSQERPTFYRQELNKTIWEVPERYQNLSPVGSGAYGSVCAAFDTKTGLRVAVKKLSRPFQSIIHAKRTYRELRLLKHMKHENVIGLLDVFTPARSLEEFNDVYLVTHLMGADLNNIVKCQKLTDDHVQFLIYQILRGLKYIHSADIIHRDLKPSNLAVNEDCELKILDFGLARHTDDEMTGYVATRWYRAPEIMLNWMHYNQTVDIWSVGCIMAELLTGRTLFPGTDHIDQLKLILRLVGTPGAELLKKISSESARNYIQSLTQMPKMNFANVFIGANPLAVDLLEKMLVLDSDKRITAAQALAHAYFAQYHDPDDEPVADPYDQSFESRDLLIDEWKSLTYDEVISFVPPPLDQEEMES
IC50 (p38 alpha) [nM],SMILES,IC50 [1] [nM]
1 to 10,"COCC(C)(C)c1nnc2ccc(O[C@@H]3CC[C@H](NC(=O)Nc4cc(C(=O)NCC(C)(C)N(C)C)nc(C(C)(C)C)c4)c4ccccc43)cn12 [Example 196, 6-(tert-butyl)-N-(2-(dimethylamino)-2-methylpropyl)-4-(3-((1S,4R)-4-((3-(1-methoxy-2-methylpropan-2-yl)-[1,2,4]triazolo[4,3-a]pyridin-6-yl)oxy)-1,2,3,4-tetrahydronaphthalen-1-yl)ureido)picolinamide]",> 5
< 1,"CC(C)(C)c1cc(NC(=O)N[C@H]2CC[C@@H](Oc3ccc4nnc(C(C)(C)C)n4c3)c3ccccc32)cc(C(=O)NCCN2CC(O)C2)n1 [Example 197, 6-(tert-butyl)-4-(3-((1S,4R)-4-((3-(tert-butyl)-[1,2,4]triazolo[4,3-a]pyridin-6-yl)oxy)-1,2,3,4-tetrahydronaphthalen-1-yl)ureido)-N-(2-(3-hydroxyazetidin-1-yl)ethyl)picolinamide]",> 5
< 1,"CN1CCN(C(C)(C)c2nnc3ccc(O[C@@H]4CC[C@H](NC(=O)Nc5cc(CO)nc(C(C)(C)C)c5)c5ccccc54)cn23)CC1 [Example 198, 1-(2-(tert-butyl)-6-(hydroxymethyl)pyridin-4-yl)-3-((1S,4R)-4-((3-(2-(4-methylpiperazin-1-yl)propan-2-yl)-[1,2,4]triazolo[4,3-a]pyridin-6-yl)oxy)-1,2,3,4-tetrahydronaphthalen-1-yl)urea]",> 5
1 to 10,"CN(C)CCNC(=O)c1cc(NC(=O)N[C@H]2CC[C@@H](Oc3ccc4nnc(C(C)(C)N5CCN(C)CC5)n4c3)c3ccccc32)cc(C(C)(C)C)n1 [Example 199, 6-(tert-Butyl)-N-(2-(dimethylamino)ethyl)-4-(3-((1S,4R)-4-((3-(2-(4-methylpiperazin-1-yl)propan-2-yl)-[1,2,4]triazolo[4,3-a]pyridin-6-yl)oxy)-1,2,3,4-tetrahydronaphthalen-1-yl)ureido)picolinamide formate salt]",> 5
< 1,"CN1CCN(C(C)(C)c2nnc3ccc(O[C@@H]4CC[C@H](NC(=O)Nc5cc(C(=O)NCCO)nc(C(C)(C)C)c5)c5ccccc54)cn23)CC1 [Example 200, 6-(tert-Butyl)-N-(2-hydroxyethyl)-4-(3-((1S,4R)-4-((3-(2-(4-methylpiperazin-1-yl)propan-2-yl)-[1,2,4]triazolo[4,3-a]pyridin-6-yl)oxy)-1,2,3,4-tetrahydronaphthalen-1-yl)ureido)picolinamide formate salt]",> 5
< 1,"CC[C@H](C)c1nnc2ccc(O[C@@H]3CC[C@H](NC(=O)Nc4cc(C(=O)NCCN(C)C)nc(C(C)(C)C)c4)c4ccccc43)cn12 [Example 201, 6-(tert-Butyl)-4-(3-((1S,4R)-4-((3-((S)-sec-butyl)-[1,2,4]triazolo[4,3-a]pyridin-6-yl)oxy)-1,2,3,4-tetrahydronaphthalen-1-yl)ureido)-N-(2-(dimethylamino)ethyl)-picolinamide formate salt]",1 to 5
1 to 10,"CC[C@H](C)c1nnc2ccc(O[C@@H]3CC[C@H](NC(=O)Nc4cc(C(=O)NCC(C)(C)N(C)C)nc(C(C)(C)C)c4)c4ccccc43)cn12 [Example 202, 6-(tert-Butyl)-4-(3-((1S,4R)-4-((3-((S)-sec-butyl)-[1,2,4]triazolo[4,3-a]pyridin-6-yl)oxy)-1,2,3,4-tetrahydronaphthalen-1-yl)ureido)-N-(2-(dimethylamino)-2-methylpropyl)-picolinamide formate salt]",1 to 5
< 1,"CCN(CC)c1nnc2ccc(O[C@@H]3CC[C@H](NC(=O)Nc4cc(C(=O)NCC(C)(C)N(C)C)nc(C(C)(C)C)c4)c4ccccc43)cn12 [Example 204, 6-(tert-Butyl)-4-(3-((1S,4R)-4-((3-(diethylamino)-[1,2,4]triazolo[4,3-a]pyridin-6-yl)oxy)-1,2,3,4-tetrahydronaphthalen-1-yl)ureido)-N-(2-(dimethylamino)-2-methylpropyl)-picolinamide formate salt]",1 to 5
< 1,"CCN(C)CCNC(=O)c1cc(NC(=O)N[C@H]2CC[C@@H](Oc3ccc4nnc(N(CC)CC)n4c3)c3ccccc32)cc(C(C)(C)C)n1 [Example 205, 6-(tert-Butyl)-4-(3-((1S,4R)-4-((3-(diethylamino)-[1,2,4]triazolo[4,3-a]pyridin-6-yl)oxy)-1,2,3,4-tetra-hydronaphthalen-1-yl)ureido)-N-(2-(ethyl(methyl)amino)-ethyl)picolinamide formate salt]",1 to 5
< 1,"CCC(C)(C)c1nnc2ccc(O[C@@H]3CC[C@H](NC(=O)Nc4cc(C(=O)NCCN(C)C)nc(C(C)(C)C)c4)c4ccccc43)cn12 [Example 206, 6-(tert-butyl)-N-(2-(dimethylamino)ethyl)-4-(3-((1S,4R)-4-((3-(tert-pentyl)-[1,2,4]triazolo[4,3-a]pyridin-6-yl)oxy)-1,2,3,4-tetrahydronaphthalen-1-yl)ureido)picolinamide]",1 to 5
< 1,"CCC(CC)c1nnc2ccc(O[C@@H]3CC[C@H](NC(=O)Nc4cc(C(=O)NCCN(C)C)nc(C(C)(C)C)c4)c4ccccc43)cn12 [Example 207, 6-(tert-butyl)-N-(2-(dimethylamino)ethyl)-4-(3-((1S,4R)-4-((3-(pentan-3-yl)-[1,2,4]triazolo[4,3-a]pyridin-6-yl)oxy)-1,2,3,4-tetrahydronaphthalen-1-yl)ureido)picolinamide]",< 1
< 1,"CN(CCO)CCNC(=O)c1cc(C(C)(C)C)cc(NC(=O)N[C@H]2CC[C@@H](Oc3ccc4nnc(C(C)(C)C)n4c3)c3ccccc32)n1 [Example 208, 4-(tert-butyl)-6-(3-((1S,4R)-4-((3-(tert-butyl)-[1,2,4]triazolo[4,3-a]pyridin-6-yl)oxy)-1,2,3,4-tetrahydronaphthalen-1-yl)ureido)-N-(2-((2-hydroxyethyl)(methyl)-amino)ethyl)picolinamide formate salt]",> 5
< 1,"CC(C)(C)c1cc(NC(=O)N[C@H]2CC[C@@H](Oc3ccc4nnc(C(C)(C)C)n4c3)c3ccccc32)nc(C(=O)NCCN2CCCOCC2)c1 [Example 209, N-(2-(1,4-oxazepan-4-yl)ethyl)-4-(tert-butyl)-6-(3-((1S,4R)-4-((3-(tert-butyl)-[1,2,4]triazolo[4,3-a]pyridin-6-yl)oxy)-1,2,3,4-tetrahydronaphthalen-1-yl)ureido)picolinamide formate salt]",< 1
< 1,"COC1CN(CCNC(=O)c2cc(C(C)(C)C)cc(NC(=O)N[C@H]3CC[C@@H](Oc4ccc5nnc(C(C)(C)C)n5c4)c4ccccc43)n2)C1 [Example 210, 4-(tert-butyl)-6-(3-((1S,4R)-4-((3-(tert-butyl)-[1,2,4]triazolo[4,3-a]pyridin-6-yl)oxy)-1,2,3,4-tetrahydronaphthalen-1-yl)ureido)-N-(2-(3-methoxyazetidin-1-yl)ethyl)picolinamide formate salt]",1 to 5
< 1,"CC(C)(C)c1cc(NC(=O)N[C@H]2CC[C@@H](Oc3ccc4nnc(C(C)(C)C)n4c3)c3ccccc32)nc(C(=O)NCCN2CCC(O)CC2)c1 [Example 211, 4-(tert-butyl)-6-(3-((1S,4R)-4-((3-(tert-butyl)-[1,2,4]triazolo[4,3-a]pyridin-6-yl)oxy)-1,2,3,4-tetrahydronaphthalen-1-yl)ureido)-N-(-(2-(4-hydroxypiperidin-1-yl)ethyl)picolinamide formate salt]",> 5
< 1,"CN1CCC[C@@]1(C)c1nnc2ccc(O[C@@H]3CC[C@H](NC(=O)Nc4cc(NS(C)(=O)=O)nc(C(C)(C)C)c4)c4ccccc43)cn12 [Example 212, N-(6-(tert-Butyl)-4-(3-((1S,4R)-4-((3-((S)-1,2-dimethylpyrrolidin-2-yl)-[1,2,4]triazolo[4,3-a]pyridin-6-yl)oxy)-1,2,3,4-tetrahydronaphthalen-1-yl)ureido)pyridin-2-yl)methanesulfonamide]",1 to 5
< 1,"CCS(=O)(=O)Nc1cc(NC(=O)N[C@H]2CC[C@@H](Oc3ccc4nnc([C@]5(C)CCCN5C)n4c3)c3ccccc32)cc(C(C)(C)C)n1 [Example 213, N-(6-(tert-Butyl)-4-(3-((1S,4R)-4-((3-((S)-1,2-dimethylpyrrolidin-2-yl)-[1,2,4]triazolo[4,3-a]pyridin-6-yl)oxy)-1,2,3,4-tetrahydronaphthalen-1-yl)ureido)pyridin-2-yl)ethanesulfonamide]",1 to 5
1 to 10,"CN(C)CCNC(=O)c1nc(NC(=O)N[C@H]2CC[C@@H](Oc3ccc4nnc([C@@H]5COCCN5C)n4c3)c3ccccc32)cc(C(C)(C)C)n1 [Example 214, 4-(tert-Butyl)-N-(2-(dimethylamino)ethyl)-6-(3-((1S,4R)-4-((3-((R)-4-methylmorpholin-3-yl)-[1,2,4]triazolo[4,3-a]pyridin-6-yl)oxy)-1,2,3,4-tetrahydronaphthalen-1-yl)ureido)pyrimidine-2-carboxamide]",> 5
1 to 10,"CN(CCO)CCNC(=O)c1nc(NC(=O)N[C@H]2CC[C@@H](Oc3ccc4nnc([C@@H]5COCCN5C)n4c3)c3ccccc32)cc(C(C)(C)C)n1 [Example 215, 4-(tert-Butyl)-N-(2-((2-hydroxyethyl)(methyl)amino)ethyl)-6-(3-((1S,4R)-4-((3-((R)-4-methylmorpholin-3-yl)-[1,2,4]triazolo[4,3-a]pyridin-6-yl)oxy)-1,2,3,4-tetrahydronaphthalen-1-yl)ureido)pyrimidine-2-carboxamide]",> 5
